Reference: PubChem BioAssay AID256 (DTP/NCI, 2004)
“And” between values parts separate entries of the source, which are not always exact repeats. Identical values can stand only once. Inconclusive results and toxic doses are left out. The calls were made as follows: active = survival T/C of 150% or more; inactive = T/C below 125% in these data.

System: CD2F1 mice, L1210 leukemia ip, survival T/C
Assay: NCI In Vivo Anticancer Drug Screen. Data for tumor model L1210 Leukemia (intraperitoneal) in CD2F1 (CDF1) mice
Conditions: endpoint: mean survival time, higher = longer survival
In short: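 Tumor-bearing mice (transplanted tumor) were split into treated and vehicle control groups, and the measured endpoint of each treated group was divided by that of its vehicle controls.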

[1] = dose: 100.0 mg/kg/injection, schedule: Q04DX002 (ip), vehicle: saline with Tween-80
[2] = dose: 200.0 mg/kg/injection, schedule: Q04DX002 (ip), vehicle: saline with Tween-80
[3] = dose: 400.0 mg/kg/injection, schedule: Q04DX002 (ip), vehicle: saline with Tween-80
[4] = dose: 50.0 mg/kg/injection, schedule: Q01DX009 (ip), vehicle: saline with Tween-80
[5] = dose: 100.0 mg/kg/injection, schedule: Q01DX009 (ip), vehicle: saline with Tween-80
[6] = dose: 100.0 mg/kg/injection, schedule: Q04DX003 (ip), vehicle: saline
[7] = dose: 200.0 mg/kg/injection, schedule: Q01DX009 (ip), vehicle: saline with Tween-80
[8] = dose: 200.0 mg/kg/injection, schedule: Q04DX003 (ip), vehicle: saline
[9] = dose: 400.0 mg/kg/injection, schedule: Q04DX003 (ip), vehicle: saline
[10] = dose: 100.0 mg/kg/injection, schedule: Q04DX003 (ip), vehicle: saline with Tween-80
[11] = dose: 200.0 mg/kg/injection, schedule: Q04DX003 (ip), vehicle: saline with Tween-80
[12] = dose: 400.0 mg/kg/injection, schedule: Q01DX009 (ip), vehicle: saline with Tween-80
[13] = dose: 400.0 mg/kg/injection, schedule: Q04DX003 (ip), vehicle: saline with Tween-80

Measured: T/C

CCOc1ccccc1/C=C1\N=C(c2ccc([N+](=O)[O-])cc2)OC1=O
inactive: [1] 95 % of control | [2] 91 % of control | [3] 100 % of control

COc1cc(/C=C2/CCCCC2=O)ccc1O
inactive: dose: 100.0 mg/kg/injection, schedule: Q01DX009 (ip), vehicle: other 104 % of control | dose: 200.0 mg/kg/injection, schedule: Q01DX009 (ip), vehicle: other 98 % of control | dose: 400.0 mg/kg/injection, schedule: Q01DX009 (ip), vehicle: other 98 % of control

C1=CC(=C(C2CCC(Nc3ccccc3)CC2)C2CCC(Nc3ccccc3)CC2)C=CC1=Nc1ccccc1 (centres undefined)
inactive: [4] 103 % of control | [5] 101 % of control | [6] 104 % of control | [7] 107 % of control | [8] 104 % of control

CCOc1ccc(Br)cc1/C=C(\C#N)c1ccc([N+](=O)[O-])cc1
inactive: dose: 0.1 mg/kg/injection, schedule: Q01DX009 (ip), vehicle: saline with Tween-80 98 % of control | dose: 0.2 mg/kg/injection, schedule: Q01DX009 (ip), vehicle: saline with Tween-80 97 % of control | dose: 0.39 mg/kg/injection, schedule: Q01DX009 (ip), vehicle: saline with Tween-80 93 % of control | dose: 0.4 mg/kg/injection, schedule: Q01DX009 (ip), vehicle: saline with Tween-80 90 % of control | dose: 12.5 mg/kg/injection, schedule: Q04DX003 (ip), vehicle: saline with Tween-80 87 % of control | dose: 25.0 mg/kg/injection, schedule: Q04DX003 (ip), vehicle: saline with Tween-80 89 % of control | dose: 50.0 mg/kg/injection, schedule: Q04DX003 (ip), vehicle: saline with Tween-80 86 % of control

CN(C)C(c1ccccc1)P(=O)(O)O (centres undefined)
inactive: [6] 98 % of control | [8] 101 % of control | [9] 98 % of control

CC(Cl)S(=O)(=O)c1ccccc1 (centres undefined)
inactive: [1] 104 % of control | [2] 96 % of control | [3] 96 % of control

Clc1c(Cl)c(Cl)c(Cl)c(Cl)c1Cl
inactive: [5] 97 % of control | [10] 97 % of control | [7] 100 % of control | [11] 94 % of control | [12] 103 % of control | [13] 102 % of control

O=c1nc(Sc2ccccc2)ccn1C1OC(CO)C(O)C1O (centres undefined)
inactive: dose: 12.5 mg/kg/injection, schedule: Q01DX005 (ip), vehicle: distilled water + Tween-80 106 % of control | dose: 25.0 mg/kg/injection, schedule: Q01DX005 (ip), vehicle: distilled water + Tween-80 103 % of control | dose: 50.0 mg/kg/injection, schedule: Q01DX005 (ip), vehicle: distilled water + Tween-80 106 % of control | dose: 100.0 mg/kg/injection, schedule: Q01DX005 (ip), vehicle: distilled water + Tween-80 110 % of control | dose: 200.0 mg/kg/injection, schedule: Q01DX005 (ip), vehicle: distilled water + Tween-80 118 % of control

CC(C)(C)C1CCC(OC(=O)c2ccccc2C(=O)O)CC1 (centres undefined)
inactive: [5] 100 % of control | [10] 100 % of control | [7] 97 % of control | [11] 98 % of control | [12] 89 % of control | [13] 96 % of control

Cc1nnc2ncccn12
inactive: dose: 12.5 mg/kg/injection, schedule: Q01DX009 (ip), vehicle: saline 96 % of control and 102 % of control | dose: 25.0 mg/kg/injection, schedule: Q01DX009 (ip), vehicle: saline 96 % of control and 97 % of control | dose: 50.0 mg/kg/injection, schedule: Q01DX009 (ip), vehicle: saline 92 % of control and 96 % of control | dose: 100.0 mg/kg/injection, schedule: Q01DX009 (ip), vehicle: saline 95 % of control and 97 % of control | dose: 200.0 mg/kg/injection, schedule: Q01DX009 (ip), vehicle: saline 90 % of control and 96 % of control

FC(F)Cc1ccccc1
inactive: dose: 100.0 mg/kg/injection, schedule: Q01DX001 (ip), vehicle: saline with Tween-80 100 % of control | dose: 200.0 mg/kg/injection, schedule: Q01DX001 (ip), vehicle: saline with Tween-80 94 % of control | dose: 400.0 mg/kg/injection, schedule: Q01DX001 (ip), vehicle: saline with Tween-80 100 % of control

Cc1ccc(S(=O)(=O)O/N=C2/CCC(C)(C)c3ccccc32)cc1
inactive: [5] 102 % of control | [10] 102 % of control | [7] 102 % of control | [11] 103 % of control | [12] 94 % of control | [13] 96 % of control

NC(N)=NC(N)=Nc1cc(Cl)c(Cl)cc1Cl
inactive: [10] 96 % of control | [11] 96 % of control | [13] 98 % of control

C=C1C(=O)O[C@@H]2/C=C(/C)[C@@]3(O)C=C[C@](C)(C[C@@H](OC(=O)/C(=C\C)COC(C)=O)[C@@H]12)O3
inactive: dose: 6.0 mg/kg/injection, schedule: Q01DX009 (ip), vehicle: saline with Tween-80 88 % of control | dose: 8.0 mg/kg/injection, schedule: Q01DX009 (ip), vehicle: saline with Tween-80 94 % of control | dose: 12.0 mg/kg/injection, schedule: Q01DX009 (ip), vehicle: saline with Tween-80 94 % of control | dose: 18.0 mg/kg/injection, schedule: Q01DX009 (ip), vehicle: saline with Tween-80 98 % of control | dose: 27.0 mg/kg/injection, schedule: Q01DX009 (ip), vehicle: saline with Tween-80 93 % of control

CC(C)(C)OOC(=O)c1ccc([N+](=O)[O-])cc1
inactive: [5] 101 % of control | [7] 97 % of control | [12] 101 % of control

Cc1c(N=[N+]=[N-])c(NS(=O)(=O)c2ccccc2)c(C)c(N=[N+]=[N-])c1NS(=O)(=O)c1ccccc1
inactive: [10] 96 % of control | [11] 93 % of control | [13] 93 % of control

CCOC(=O)C[n+]1ccccc1
inactive: [6] 107 % of control and 95 % of control | [8] 90 % of control and 89 % of control

O=C1C(=O)c2ccccc2C(O)=C1C(C1=C(O)c2ccccc2C(=O)C1=O)c1ccc(C(C2=C(O)c3ccccc3C(=O)C2=O)C2=C(O)c3ccccc3C(=O)C2=O)cc1
inactive: dose: 100.0 mg/kg/injection, schedule: Q01DX009 (ip), vehicle: saline sonified 96 % of control | dose: 200.0 mg/kg/injection, schedule: Q01DX009 (ip), vehicle: saline sonified 97 % of control | dose: 400.0 mg/kg/injection, schedule: Q01DX009 (ip), vehicle: saline sonified 108 % of control

CSc1nc2cc(S(=O)(=O)O)ccc2s1
inactive: dose: 100.0 mg/kg/injection, schedule: Q04DX003 (ip), vehicle: saline sonified 103 % of control | dose: 200.0 mg/kg/injection, schedule: Q04DX003 (ip), vehicle: saline sonified 97 % of control | dose: 400.0 mg/kg/injection, schedule: Q04DX003 (ip), vehicle: saline sonified 89 % of control

CC(=O)Nc1ccc(C(=O)C=O)cc1
inactive: dose: 6.25 mg/kg/injection, schedule: Q01DX009 (ip), vehicle: saline with Tween-80 103 % of control | dose: 12.5 mg/kg/injection, schedule: Q01DX009 (ip), vehicle: saline with Tween-80 110 % of control | dose: 25.0 mg/kg/injection, schedule: Q01DX009 (ip), vehicle: saline with Tween-80 107 % of control | [4] 113 % of control | [5] 110 % of control | [7] 103 % of control

CCCCS(=O)(=O)OCCCCOS(=O)(=O)CCCC
inactive: [6] 96 % of control | [8] 95 % of control | [9] 101 % of control

CCN(CC)Cc1cc(Nc2nc(NC3CCC(N(C)C)CC3)c3ccccc3n2)ccc1OC (centres undefined)
inactive: dose: 12.5 mg/kg/injection, schedule: Q04DX003 (ip), vehicle: saline 103 % of control | dose: 25.0 mg/kg/injection, schedule: Q04DX003 (ip), vehicle: saline 97 % of control | dose: 50.0 mg/kg/injection, schedule: Q04DX003 (ip), vehicle: saline 105 % of control
